{
  "source": "paper PMC3285556",
  "about": "(Molecular Microbiology, 2011)",
  "key": {"[1]": {"biological_target": "V. harveyi wild-type CqsS receptor (Vibrio campbellii, UniProt A7N6S2)", "assay": "cell-based", "assay_type": "cell-based"}, "[2]": {"biological_target": "V. cholerae CqsS receptor (wild-type) (Vibrio cholerae serotype O1, UniProt Q9KM66)", "assay_type": "cell-based"}, "V. cholerae CqsA": {"biological_target": "V. cholerae CqsA (Vibrio cholerae serotype O1, UniProt Q9KM65)", "assay": "Coupled-enzyme assay for CqsA enzyme kinetics", "assay_type": "biochemical", "settings": "for Km / Vmax / kcat: Vc CqsA, acyl CoA substrate, 200 µM SAM"}, "V. harveyi CqsA": {"biological_target": "V. harveyi CqsA (Vibrio campbellii, UniProt A7N6R9)", "assay": "Coupled-enzyme assay for CqsA enzyme kinetics", "assay_type": "biochemical", "settings": "Vh CqsA, acyl CoA substrate, 200 µM SAM"}, "V. cholerae CqsS C170F": {"biological_target": "V. cholerae CqsS C170F (Vibrio cholerae serotype O1, UniProt Q9KM66, C170F)", "assay_type": "cell-based"}},
  "data": [
    {"compound": "CCCCCCCC(O)C(=O)CC", "note": "(stereo not drawn) [4-hydroxyundecan-3-one]", "values": [
      {"measurement": "agonist activity on V. harveyi CqsS (light production in JMH626), in words", "setting": "[1]", "value": "inactive"}
    ]},
    {"compound": "CCCCCCCCCC(=O)[C@@H](N)CC", "note": "[Am-CAI-1, (S)-3-aminotridecan-4-one]", "values": [
      {"measurement": "potency relative to hydroxy counterpart", "setting": "[1]; V. harveyi CqsS, data not shown", "value": "comparable to the CAI-1 and C8-CAI-1 counterparts"},
      {"measurement": "potency relative to hydroxy counterpart", "setting": "[2]; V. cholerae CqsS, data not shown", "value": "comparable to the CAI-1 and C8-CAI-1 counterparts"}
    ]},
    {"compound": "CCCCCCCC(=O)SCCNC(=O)CCNC(=O)C(O)C(C)(C)COP(=O)(O)OP(=O)(O)OC[C@H]1O[C@@H](n2cnc3c(N)ncnc32)[C@H](O)[C@@H]1OP(=O)(O)O", "note": "(stereo partly drawn) [C8 CoA, octanoyl CoA]", "values": [
      {"measurement": "Km", "setting": "V. cholerae CqsA", "value": "73 ± 4.9", "unit": "µM"},
      {"measurement": "Vmax", "setting": "V. cholerae CqsA", "value": "1.4 ± 0.05", "unit": "µM/min"},
      {"measurement": "kcat", "setting": "V. cholerae CqsA", "value": "0.075 ± 0.00283", "unit": "s⁻¹"},
      {"measurement": "Km", "setting": "V. harveyi CqsA", "value": "14.1 ± 1.3", "unit": "µM"},
      {"measurement": "Vmax", "setting": "V. harveyi CqsA", "value": "0.64 ± 0.02", "unit": "µM/min"},
      {"measurement": "kcat", "setting": "V. harveyi CqsA", "value": "0.178 ± 0.0067", "unit": "s⁻¹"}
    ]},
    {"compound": "CCCCCCCC(=O)C(O)CC", "note": "(stereo not drawn) [C8-CAI-1, 3-hydroxyundecan-4-one]", "values": [
      {"measurement": "EC50", "setting": "[1]; EC50, V. harveyi wild-type CqsS", "value": 5, "unit": "µM"},
      {"measurement": "agonist activity on V. harveyi CqsS (light production in JMH626), in words", "setting": "[1]", "value": "weak agonist"},
      {"measurement": "increase in light production", "setting": "[1]; JMH626, 10 µM", "value": "approximately 400 fold"},
      {"measurement": "light production on increasing the concentration", "setting": "[1]; JMH626, 50 µM", "value": "did not further activate light production"}
    ]},
    {"compound": "CCCCCCCCCC(=O)SCCNC(=O)CCNC(=O)C(O)C(C)(C)COP(=O)(O)OP(=O)(O)OC[C@H]1O[C@@H](n2cnc3c(N)ncnc32)[C@H](O)[C@@H]1OP(=O)(O)O", "note": "(stereo partly drawn) [C10 CoA, decanoyl coenzyme A]", "values": [
      {"measurement": "substrate preference of V. cholerae CqsA, C10-CoA over C8-CoA (Km and kcat)", "setting": "V. cholerae CqsA", "value": "four- to sixfold"},
      {"measurement": "Km", "setting": "V. cholerae CqsA", "value": "13 ± 3.1", "unit": "µM"},
      {"measurement": "Vmax", "setting": "V. cholerae CqsA", "value": "1.2 ± 0.15", "unit": "µM/min"},
      {"measurement": "kcat", "setting": "V. cholerae CqsA", "value": "0.325 ± 0.0417", "unit": "s⁻¹"}
    ]},
    {"compound": "CCCCCCCCCC(=O)[C@@H](O)CC", "note": "[CAI-1, (S)-3-hydroxytridecan-4-one]", "values": [
      {"measurement": "detection by V. cholerae CqsS C170F, in words", "setting": "V. cholerae CqsS C170F", "value": "only detects Ea-C8-CAI-1 and C8-CAI-1, but not CAI-1 and Ea-CAI-1"},
      {"measurement": "agonist activity on V. harveyi CqsS (light production in JMH626), in words", "setting": "[1]", "value": "insensitive"}
    ]},
    {"compound": "C/C=C(\\N)C(=O)CCCCCCC", "note": "[Ea-C8-CAI-1, (Z)-3-aminoundec-2-en-4-one]", "values": [
      {"measurement": "agonist activity on V. harveyi CqsS (light production in JMH626), in words", "setting": "[1]", "value": "induce maximal light production"},
      {"measurement": "difference in EC50 between C8-CAI-1 and Ea-C8-CAI-1", "setting": "[2]", "value": 30, "unit": "fold"}
    ]}
  ]
}
